From patent publication US6599898B2, “Use of certain substituted caprolactam carbonates and ethers in treating tumors” (Novartis AG, priority 2000, dated 2003)

Columns and labels:
A549 tumor xenografts = assay: Human tumor xenograft growing s.c. in athymic nude mice; format: in vivo, athymic nude mouse; conditions: 5×/week for 2 weeks, recorded on day 24, * = p<0.05
Experimental: (§1) Utilizing this model, one can measure the ability of test compounds to inhibit the growth of human tumor xenografts growing subcutaneously (s.c.) in athymic nude mice. The histologic tumor type employed was MDA-MB-435 breast carcinoma for Ex.1 and 7 and A549 non-small cell lung carcinoma for Ex. 1-3.
A549 non-small cell lung carcinoma: Treatments were started 17 d post-implantation (1×10^7 cells/mouse), when a mean tumor volume of approximately 120 mm^3 was reached. Ex. 1-3 were administered iv on days 17-21 (followed by 2 d rest, then a second cycle of treatment on days 24-28). Total daily doses of 10 or 30 μmol/kg were administered as a single injection. Data in this table were recorded on day 24, 3 d after the last treatment of the first cycle. An asterisk (*) indicates p<0.05 using a one-tailed Student's t-Test.
Toxicity was monitored by recording average group body weights twice weekly, and by daily observation of general health. Efficacy was monitored by taking measurements of tumor length, width, and depth weekly using digital calipers coupled to automated data collectors. […] Anti-tumor activity was expressed as % T/C(Δ MTV of treated group÷Δ MTV of control group×100%). Statistical significance was evaluated using a one-tailed Student's t-test (p<0.05).

[1] = test system: MDA-MB-435 human breast carcinoma; assay: Anchorage Dependent Growth Monolayer Assay (ADGMA), MTS; format: cell-based; conditions: MDA-MB-435, 72 h, 3-day exposure, MTS A490, read-out: IC50 (average±S.D.) MDA-MB-435
Experimental: As indicated above, all of the compounds of formula I, and their corresponding pharmaceutically acceptable acid addition salts, are anti-tumor agents and are, therefore, useful in inhibiting the growth of various lymphomas, sarcomas, carcinomas, myelomas, and leukemia cell lines. […]
The ADGMA compares the number of viable cells following a 3-day exposure to a test compound relative to a number of cells present at the time the test compound was added. […] The absorbance at 490 nm (A490) of the formazan derivative is proportional to the number of viable cells. […]
Cell lines are trypsinized and counted using a Coulter counter to determine plating densities. […] The number of cells plates as determined in preliminary experiments, results in cell densities of 75-90% of confluency by 4 days after plating. Initial cell densities, assayed one day after plating, are roughly 0.15-0.20 absorbance units greater than the media blank. […] A490 of control plates is read 4 h after MTS addition to determine initial cell density values for each cell line. Three days after addition of test compound, 10 μL/well of MTS mixture is added to the test plates and A490 is read 4 h later. A490 values for wells containing cells are corrected for media absorbance, then normalized to initial density readings to determine percent net growth. […]

[2] = test system: MDA-MB-435 tumor xenografts; assay: Human tumor xenograft growing s.c. in athymic nude mice; format: in vivo, athymic nude mouse; conditions: 3×/week for 3 weeks, * = p<0.05
Experimental: as §1
MDA-MB-435 human breast carcinoma: Treatments were started 15 d post implantation (3×10^6 cells/mouse), when a mean tumor volume of approximately 45 mm^3 was reached. Ex. 1 and 7 were administered iv at three times per week for 3 weeks (days 15, 17, 20, 22, 24, 27, 29, and 31), at 3.3, 10, and 33 μmol/kg. Doxorubicin was administered iv at 2 mg/kg using the same schedule. Each data point represents tumor growth (mean±SEM), or body weight (mean), with an initial group size of n=8, from a representative experiment performed twice. An asterisk (*) indicates p<0.05 using a one-tailed Student's t-test.
Toxicity was monitored by recording average group body weights twice weekly, and by daily observation of general health. Efficacy was monitored by taking measurements of tumor length, width, and depth weekly using digital calipers coupled to automated data collectors. Mean tumor volume (MTV) at initiation of therapy was subtracted from final MTV in order to express the actual tumor growth during treatment (Δ MTV). Anti-tumor activity was expressed as % T/C(Δ MTV of treated group÷Δ MTV of control group×100%). Statistical significance was evaluated using a one-tailed Student's t-test (p<0.05).

| Compound | % T/C (A549 tumor xenografts; 10 μmol/kg iv daily) | % T/C (A549 tumor xenografts; 30 μmol/kg iv daily) | IC50 [1] | % T/C ([2]; 3.3 μmol/kg iv) | % T/C ([2]; 10 μmol/kg iv) | % T/C ([2]; 33 μmol/kg iv) |
| --- | --- | --- | --- | --- | --- | --- |
| CCCCCOC(=O)O[C@@H]1CC[C@H](NC(=O)[C@H](OC)[C@H](O)[C@@H](O)[C@H](O)/C=C/C(C)(C)C)C(=O)NC1 [Ex. 2, (2R,3R,4S,5R,6E)-3,4,5-trihydroxy-2-methoxy-8,8-dimethyl-N-[(3S,6R)-hexahydro-2-oxo-6-([[pentyloxy]carbonyl]oxy)-2H-azepin-3-yl]non-6-enonamide] | 32* % | 46* % | – | – | – | – |
| CCCCCCCCCCCOCC(=O)O[C@@H]1CC[C@H](NC(=O)[C@H](OC)[C@H](O)[C@@H](O)[C@H](O)/C=C/C(C)(C)C)C(=O)NC1 [Ex. 7, (2R,3R,4S,5R,6E)-3,4,5-trihydroxy-2-methoxy-8,8-dimethyl-N-[(3S,6R)-hexahydro-2-oxo-6-([[undecyloxy]acetyl]oxy)-2H-azepin-3-yl]non-6-enonamide] | – | – | 61 ± 95 nM | 102% | 64% | 30* % |
